The record followed here is the supplement of paper PMC10307832.

Test in all cases: relative viability (nuclei count vs DMSO), 5 days (fraction); higher = more cells survive
Compound in the experiment “BI-D1870 + Alpelisib”: CC(C)CCN1c2nc(Nc3cc(F)c(O)c(F)c3)ncc2N(C)C(=O)C1C [BI-D1870] + Cc1nc(NC(=O)N2CCC[C@H]2C(N)=O)sc1-c1ccnc(C(C)(C)C(F)(F)F)c1 [Alpelisib] (partner 2 µM)
The procedure, abridged: (§1)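 Lung cancer cell lines were pin-tool dosed in 1536-well plates on the day after seeding, with either a lone drug or a fixed anchor-drug dose plus five library-drug doses (not always all listed) in √10 steps. Nuclei were counted on 4× images after 5 days. Relative viability is the ratio of treated-well to vehicle-well nuclei counts, with each value a median of duplicate plates.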

Compound in the experiment “BI-D1870 + Palbociclib”: CC(C)CCN1c2nc(Nc3cc(F)c(O)c(F)c3)ncc2N(C)C(=O)C1C [BI-D1870] + CC(=O)c1c(C)c2cnc(Nc3ccc(N4CCNCC4)cn3)nc2n(C2CCCC2)c1=O [Palbociclib] (partner 0.5 µM)
The procedure, abridged:
as §1

Compound in the experiment “BI-D1870 + Luminespib”: CC(C)CCN1c2nc(Nc3cc(F)c(O)c(F)c3)ncc2N(C)C(=O)C1C [BI-D1870] + CCNC(=O)c1noc(-c2cc(C(C)C)c(O)cc2O)c1-c1ccc(CN2CCOCC2)cc1 [Luminespib] (partner 0.01 µM)
The procedure, abridged:
as §1

Compound in the experiment “BI-D1870 + Phenformin”: CC(C)CCN1c2nc(Nc3cc(F)c(O)c(F)c3)ncc2N(C)C(=O)C1C [BI-D1870] + N=C(N)NC(=N)NCCc1ccccc1 [Phenformin] (partner 250 µM)
The procedure, abridged: as §1

With UMC-11, the relative viability with BI-D1870 + Alpelisib (first compound 0.04 µM) was 1.05; in the experiment with BI-D1870 + Alpelisib (first compound 0.1265 µM) it was 0.935; with BI-D1870 + Alpelisib (first compound 0.4 µM) it was 1; with BI-D1870 + Alpelisib (first compound 1.265 µM), 1.05; in the experiment with BI-D1870 + Alpelisib (first compound 4 µM), 1.02; with BI-D1870 + Palbociclib (first compound 0.04 µM), 0.331. For the same cell line, the relative viability with BI-D1870 + Palbociclib (first compound 0.1265 µM) turned out to be 0.347; with BI-D1870 + Palbociclib (first compound 0.4 µM), 0.327; with BI-D1870 + Palbociclib (first compound 1.265 µM) it was 0.309; with BI-D1870 + Palbociclib (first compound 4 µM) it was 0.272; in the experiment with BI-D1870 + Luminespib (first compound 0.04 µM) it was 1.06; with BI-D1870 + Luminespib (first compound 0.1265 µM) it was 1.05. Also, the relative viability amounted to 0.939 in the experiment with BI-D1870 + Luminespib (first compound 0.4 µM); 1.08 in the experiment with BI-D1870 + Luminespib (first compound 1.265 µM); 0.206 with BI-D1870 + Luminespib (first compound 4 µM); 0.332 with BI-D1870 + Phenformin (first compound 0.04 µM); 0.285 in the experiment with BI-D1870 + Phenformin (first compound 0.1265 µM); 0.33 with BI-D1870 + Phenformin (first compound 0.4 µM). The figures for the relative viability with BI-D1870 + Phenformin (first compound 1.265 µM) and in the experiment with BI-D1870 + Phenformin (first compound 4 µM) were 0.295 and 0.183, respectively.
